# According to patent US20230085307A1, “PYRIDAZINONE COMPOUND AND HERBICIDE” (NISSAN CHEMICAL CORPORATION, priority 2019, published 2023):
# Tests used:
# green foxtail = assay: Test Example 5: herbicidal effect by foliage application, plastic box (Table 20, symbol G); format: in vivo, green foxtail (Setaria viridis); conditions: foliage application, 320 g/ha, three weeks after application
# Summary of the method: (§1)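 Plants were sown into sterilized diluvial soil under about 1.5 cm cover and kept in a greenhouse at 25° C. to 30° C. Fourteen days on, foliage received an even spray of the diluted emulsion. Herbicidal or crop effect was judged three weeks afterwards.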
# velvetleaf = assay: Test Example 5: herbicidal effect by foliage application, plastic box (Table 20, symbol M); format: in vivo, velvetleaf (Abutilon theophrasti); conditions: foliage application, 320 g/ha, three weeks after application
# Summary of the method: as §1
# rapeseed = assay: Test Example 5: effect on crop by foliage application, plastic box (Table 20, symbol g); format: in vivo; conditions: 320 g/ha, three weeks after application
# Summary of the method: as §1
# Chinese sprangletop = assay: Test Example 3: herbicidal effect by foliage application, Wagner pot (Table 18, symbol D); format: in vivo, chinese sprangletop (Leptochloa chinensis); conditions: 320 g/ha
# Summary of the method: (§2)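 Plants were sown in alluvial soil held under 0.1–0.5 cm standing water and grown 14 days in a greenhouse at 25–30 °C. An emulsifiable formulation, water-diluted to the set dose, was then sprayed onto the foliage, and effects were scored three weeks later using previously defined criteria.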
# barnyard grass [1] = assay: Test Example 3: herbicidal effect by foliage application, Wagner pot (Table 18, symbol H); format: in vivo, barnyard grass (Echinochloa crus-galli); conditions: 320 g/ha
# Summary of the method: as §2
# persian speedwell = assay: Test Example 5: herbicidal effect by foliage application, plastic box (Table 20, symbol R); format: in vivo, Persian speedwell (Veronica persica); conditions: foliage application, 320 g/ha, three weeks after application
# Summary of the method: as §1
# blackgrass = assay: Test Example 5: herbicidal effect by foliage application, plastic box (Table 20, symbol J); format: in vivo, blackgrass (Alopecurus myosuroides); conditions: foliage application, 320 g/ha, three weeks after application
# Summary of the method: as §1
# rice flat sedge = assay: Test Example 3: herbicidal effect by foliage application, Wagner pot (Table 18, symbol E); format: in vivo, rice flat sedge (Cyperus iria); conditions: 320 g/ha
# Summary of the method: as §2
# Italian ryegrass = assay: Test Example 5: herbicidal effect by foliage application, plastic box (Table 20, symbol K); format: in vivo, Italian ryegrass (Lolium multiflorum); conditions: foliage application, 320 g/ha, three weeks after application
# Summary of the method: as §1
# late watergrass = assay: Test Example 1: herbicidal activity, application before weed generation under submerged conditions (Table 16, symbol A); format: in vivo, late watergrass (Echinochloa oryzicola); conditions: amount of applied herbicide 320 g/ha
# Summary of the method: (§3)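 Alluvial soil was flooded to 4 cm depth, weed seeds were sown mixed and 2.5-leaf rice seedlings were transplanted. On sowing day, the compound's emulsion, diluted in water to a set dose, was applied to the water surface. Plants grew at 25–30 °C and were scored 0–5 after three weeks.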
# oval-leafed pondweed = assay: Test Example 1: herbicidal activity, application before weed generation under submerged conditions (Table 16, symbol C); format: in vivo, oval-leafed pondweed (Monochoria vaginalis); conditions: amount of applied herbicide 320 g/ha
# Summary of the method: as §3
# southern crabgrass = assay: Test Example 5: herbicidal effect by foliage application, plastic box (Table 20, symbol F); format: in vivo, southern crabgrass (Digitaria ciliaris); conditions: foliage application, 320 g/ha, three weeks after application
# Summary of the method: as §1
# lambsquarters = assay: Test Example 5: herbicidal effect by foliage application, plastic box (Table 20, symbol O); format: in vivo, lambsquarters (Chenopodium album); conditions: foliage application, 320 g/ha, three weeks after application
# Summary of the method: as §1
# transplanted rice = assay: Test Example 1: effect on crop, application before weed generation under submerged conditions (Table 16, symbol a); format: in vivo; conditions: amount of applied herbicide 320 g/ha
# Description: [Test Example 1] Herbicidal Activity Test by Application before Weed Generation under Submerged Conditions After alluvial soil was placed into 1/10000 are of Wagner pot, water was poured and mixed to form a submerged condition having a water depth of 4 cm. Seeds of late watergrass, Japanese bulrush, and oval-leafed pondweed were sowed in a mixed manner in the aforementioned pot, and then 2.5 leaf stage rice plant seedlings were transplanted thereto. On the day of sowing seeds, the emulsion agent of the compound of the present invention prepared according to Formulation Example 2 was diluted with water so as to achieve a predetermined herbicide amount, and the diluted emulsion agent was applied to the surface of the water. The pot was placed in a greenhouse at 25° C. to 30° C. for growth of the plants. Three weeks after the herbicide application, the effect of the herbicide on each plant was evaluated according to the following criteria. Evaluation Criteria 5: Herbicidal rate of 90% or more (almost completely withered) 4: Herbicidal rate of 70% or more and less than 90% 3: Herbicidal rate of 40% or more and less than 70% 2: Herbicidal rate of 20% or more and less than 40% 1: Herbicidal rate of 5% or more and less than 20% 0: Herbicidal rate of 5% or less (almost no effect)
# chickweed = assay: Test Example 5: herbicidal effect by foliage application, plastic box (Table 20, symbol P); format: in vivo, common chickweed (Stellaria media); conditions: foliage application, 320 g/ha, three weeks after application
# Summary of the method: as §1
# corn = assay: Test Example 5: effect on crop by foliage application, plastic box (Table 20, symbol c); format: in vivo; conditions: 320 g/ha, three weeks after application
# Summary of the method: as §1
# directly sowed rice = assay: Test Example 3: effect on crop by foliage application, Wagner pot (Table 18, symbol b); format: in vivo; conditions: 320 g/ha
# Summary of the method: as §2
# wild oat = assay: Test Example 5: herbicidal effect by foliage application, plastic box (Table 20, symbol I); format: in vivo, wild oat (Avena fatua); conditions: foliage application, 320 g/ha, three weeks after application
# Summary of the method: as §1
# windgrass = assay: Test Example 5: herbicidal effect by foliage application, plastic box (Table 20, symbol L); format: in vivo, windgrass (Apera spica-venti); conditions: foliage application, 320 g/ha, three weeks after application
# Summary of the method: as §1
# redroot pigweed = assay: Test Example 5: herbicidal effect by foliage application, plastic box (Table 20, symbol N); format: in vivo, redroot pigweed (Amaranthus retroflexus); conditions: foliage application, 320 g/ha, three weeks after application
# Summary of the method: as §1
# soybean = assay: Test Example 5: effect on crop by foliage application, plastic box (Table 20, symbol d); format: in vivo; conditions: 320 g/ha, three weeks after application
# Summary of the method: as §1
# Japanese bulrush = assay: Test Example 1: herbicidal activity, application before weed generation under submerged conditions (Table 16, symbol B); format: in vivo, Japanese bulrush (Schoenoplectus juncoides); conditions: amount of applied herbicide 320 g/ha
# Summary of the method: as §3
# beet = assay: Test Example 5: effect on crop by foliage application, plastic box (Table 20, symbol f); format: in vivo; conditions: 320 g/ha, three weeks after application
# Summary of the method: as §1
# barnyard grass [2] = assay: Test Example 5: herbicidal effect by foliage application, plastic box (Table 20, symbol H); format: in vivo, barnyard grass (Echinochloa crus-galli); conditions: foliage application, 320 g/ha, three weeks after application
# Summary of the method: as §1
# wheat = assay: Test Example 5: effect on crop by foliage application, plastic box (Table 20, symbol e); format: in vivo; conditions: 320 g/ha, three weeks after application
# Summary of the method: as §1
compound,measurement,setting,value
"COc1ccc2c(-c3c(O)c(N(Cc4ccccc4)Cc4ccccc4)nn(C)c3=O)c(-c3ccccc3OC)sc2c1 [Compound No. 3-086, 6-(dibenzylamino)-5-hydroxy-4-(6-methoxy-2-(2-methoxyphenyl)benzo[b]thiophen-3-yl)-2-methylpyridazin-3(2H)-one]","G: green foxtail, herbicidal effect grade",green foxtail,0 (Herbicidal rate of 5% or less (almost no effect))
same,"M: velvetleaf, herbicidal effect grade",velvetleaf,0 (Herbicidal rate of 5% or less (almost no effect))
same,"g: rapeseed, effect on crop grade",rapeseed,5 (Herbicidal rate of 90% or more (almost completely withered))
same,herbicidal effect on Chinese sprangletop (D),Chinese sprangletop,0 (Herbicidal rate of 5% or less (almost no effect))
same,herbicidal effect on barnyard grass (H),barnyard grass [1],3 (Herbicidal rate of 40% or more and less than 70%)
same,"R: persian speedwell, herbicidal effect grade",persian speedwell,0 (Herbicidal rate of 5% or less (almost no effect))
same,melting point,,163 to 166 °C
same,"J: blackgrass, herbicidal effect grade",blackgrass,3 (Herbicidal rate of 40% or more and less than 70%)
same,herbicidal effect on rice flat sedge (E),rice flat sedge,0 (Herbicidal rate of 5% or less (almost no effect))
same,"K: Italian ryegrass, herbicidal effect grade",Italian ryegrass,0 (Herbicidal rate of 5% or less (almost no effect))
same,"Herbicidal effect, A: late watergrass",late watergrass,0 (Herbicidal rate of 5% or less (almost no effect))
same,"Herbicidal effect, C: oval-leafed pondweed",oval-leafed pondweed,0 (Herbicidal rate of 5% or less (almost no effect))
same,"F: southern crabgrass, herbicidal effect grade",southern crabgrass,0 (Herbicidal rate of 5% or less (almost no effect))
same,"O: lambsquarters, herbicidal effect grade",lambsquarters,1 (Herbicidal rate of 5% or more and less than 20%)
same,"Effect on crop, a: transplanted rice",transplanted rice,0 (Herbicidal rate of 5% or less (almost no effect))
same,"P: chickweed, herbicidal effect grade",chickweed,0 (Herbicidal rate of 5% or less (almost no effect))
same,"c: corn, effect on crop grade",corn,0 (Herbicidal rate of 5% or less (almost no effect))
same,effect on directly sowed rice (b),directly sowed rice,0 (Herbicidal rate of 5% or less (almost no effect))
same,"I: wild oat, herbicidal effect grade",wild oat,0 (Herbicidal rate of 5% or less (almost no effect))
same,"L: windgrass, herbicidal effect grade",windgrass,0 (Herbicidal rate of 5% or less (almost no effect))
same,"N: redroot pigweed, herbicidal effect grade",redroot pigweed,5 (Herbicidal rate of 90% or more (almost completely withered))
same,"d: soybean, effect on crop grade",soybean,3 (Herbicidal rate of 40% or more and less than 70%)
same,"Herbicidal effect, B: Japanese bulrush",Japanese bulrush,2 (Herbicidal rate of 20% or more and less than 40%)
same,"f: beet, effect on crop grade",beet,0 (Herbicidal rate of 5% or less (almost no effect))
same,"H: barnyard grass, herbicidal effect grade",barnyard grass [2],0 (Herbicidal rate of 5% or less (almost no effect))
same,"e: wheat, effect on crop grade",wheat,0 (Herbicidal rate of 5% or less (almost no effect))
